Results on two compounds are retold here after patent US7863315B2, “2-indolinone derivatives as selective histone deacetylase inhibitors” (Shenzhen Chipscreen Biosciences, Ltd., priority 2008, dated 2011).

The test system of one assay is lysine acetylation. As to the kind of experiment: ELISA assay of acetylation of lysine in HeLa cells. It is filed as cell-based. As to conditions: Homo sapiens, M-HeLa, 24 hours. The source says:
Measurement of acetylation activity in cells on substrates:
ELISA Assay of Acetylation of Lysine
This assay is used to measure in vivo inhibition of HDAC6 in a cytoblot assay.
Materials and Reagent: • 1. 24-well tissue culture • 2. DMEM Medium containing 10% FBS • 3. 96-well white plate • 4. HeLa cell line • 5. M-PER Mammalian Protein Extraction Reagent (Pierce) • 6. Bradford assay reagent • 7. Acetylated-lysine polyclonal Antibody (Cell Signaling) • 8. HRP-labeled anti-rabbit IgG (Upstate) • 9. Coating Buffer: 15 mM Na2CO3, 35 mM NaHCO3 (pH 9.6) • 10. 10×PBS: 0.58M Na2HPO4, 0.17M NaH2PO4, 0.68M NaCl (pH 7.4) • 11. Wash Buffer:1×PBS containing 0.05% Tween-20 (PBST) • 12. Blocking Buffer:10 mg/ml bocine serum albumin (BSA) in PBS • 13. Antibody Dilution Buffer: 5 mg/ml BSA in PBST • 14. Enhanced chemiluminescence (ECL) (Amersham)
Procedure for performing the assay in 96-well plate: • 1. HeLa cells were seeded at a density of 60000 cells/500 μl/well in 24-well plate and incubated at 37° C. for 24 hours. • 2. Compounds were added and incubated for 24 hours at 37° C. • 3. Culture medium was removed, then washes the cells twice with ice-cold PBS. • 4. Add 100 μl/well of Protein Extraction Reagent and gently shake the mixture for 5 minutes. • 5. Collect the lysate to a 96-well plate respectively. Determine the concentration of protein by Bradford assay. • 6. Coat the wells of a 96-well white plate with 100 μl/well of 2.5 μg whole cell protein in Coating Buffer by incubating overnight at 4° C. • 7. Discard the uncoated proteins and wash the coated wells three times with 200 μl/well of PBST. • 8. Block coated wells by incubating the plate with 200 μl/well of Blocking Buffer for 1 hour at 37° C. • 9. Wells were aspirated and washed three times with 200 μl/well of PBST. • 10. After aspirating, 50 μl/well of Antibody Dilution Buffer containing acetylated-lysine polyclonal antibody (1:1000) were added to each well and incubated for 2 hour at 37° C. • 11. Wells were aspirated and washed three times with 200 μl/well of PBST. • 12. 50 μl/well of Antibody Dilution Buffer containing HRP-labeled anti-rabbit IgG (1:2000) were added to each well and incubated for 2 hour at 37° C. • 13. Wells were aspirated and washed three times with 200 μl/well of PBST. • 14. Wells were washed three times with 200 μl/well of purified water. • 15. Add 50 μl/well of ECL mixture, then read the plates on the plate reader.
On the technique in general: In an ELISA, binding on a coated surface is turned into a signal by an enzyme label.

Assay [1] has as its system HDAC class I (p21 reporter gene). As to the kind of experiment: HDAC subtype reporter gene assay, p21-promoter luciferase in HeLa cells. In kind it is cell-based. To be noted: Homo sapiens, M-HeLa, read-out: % of SAHA Response for HDAC class I at 10 μM (p21 reporter gene), 24 hours.
Assay [2] concerns HDAC4/5 (MEF2 reporter gene). The assay is described as follows: HDAC subtype reporter gene assay, MEF-binding element (MEF2) luciferase in HeLa cells. As to conditions: Homo sapiens, M-HeLa, read-out: % of SAHA Response for HDAC4/5 at 10 μM (MEF2 reporter gene), 24 hours. It is filed as cell-based. Background: A reporter such as luciferase makes a cellular process visible.
Assay [3] relates to HDAC3 (gdf11 reporter gene). As to the kind of experiment: HDAC subtype reporter gene assay, gdf11-promoter luciferase in HeLa cells. In kind it is cell-based. As to conditions: Homo sapiens, M-HeLa, read-out: % of SAHA Response for HDAC3 at 10 μM (gdf11 reporter gene), 24 hours.
The subject of assay [4] is total HDAC enzyme (HeLa extract). As to the kind of experiment: In vitro inhibition of total HDAC enzyme activity (HDAC Fluorimetric Assay/Drug Discovery Kit, BIOMOL). In kind it is biochemical, human. The method, then: Measurement of in vitro inhibition of total HDAC enzyme activity:
The in vitro inhibition of total HDAC enzyme was determined by HDAC Fluorimetric Assay/Drug Discovery Kit (BIOMOL) according to manufacture's instruction. • 1. Add Assay buffer, diluted trichostatin A or test inhibitor to appropriate wells of the microtiter plate. Following table lists examples of various assay types and the additions required for each test.
• 2. Add diluted HeLa extract or other HDAC sample to all wells except those that are to be “No Enzyme Controls” (Blank). • 3. Allow diluted Fluor de LyS™ Substrate and the samples in the microtiter plate to equilibrate to assay temperature (25° C.). • 4. Initiate HDAC reactions by adding diluted substrate (25 μl) to each well and mixing thoroughly. • 5. Allow HDAC reactions to proceed for desired length of time and then stop them by addition of Fluor de Lys™ Developer (50 μl). Incubate plate at room temperature (25° C.) for 10-15 min. • 6. Read samples in a microtiter-plate reading fluorimeter capable of excitation at a wavelength in the range 350-380 nm and detection of emitted light in the range 440-460 nm.

In assay [5] the test system is HDAC7 (Nur77 reporter gene). As to the kind of experiment: HDAC subtype reporter gene assay, Nur77-promoter luciferase in HeLa cells. It is filed as cell-based. As to conditions: Homo sapiens, M-HeLa, read-out: % of SAHA Response for HDAC7 at 10 μM (Nur77 reporter gene), 24 hours.

Usually fold induction stands for the ratio of treated to control signal. A higher fold induction goes with a large rise in signal. In turn, `Nc1cc(F)ccc1NC(=O)CCCCCCCNC(=O)c1cccc(/C=C2\C(=O)Nc3ccc(F)cc32)c1` [Example 55, 8-(3-((5-fluoro-2-oxoindolin-3-ylidene)methyl)benzamido)-N-(2-amino-4-fluorophenyl)octanamide] came in with a fold induction at 10 µM with lysine acetylation of 1.12. The Emax at 10 µM in assay [1] turned out to be 10%; in assay [2] it was 36%; in assay [3], 6%; in assay [5], 9%. Besides, in assay [4], the “% of Inhibition on Total HDAC Enzyme at 30 μM” value is 14%.

`O=C(CCCCCCCNC(=O)c1cccc(/C=C2\C(=O)Nc3ccc(F)cc32)c1)NO` [Example 56, 8-(3-((5-fluoro-2-oxoindolin-3-ylidene)methyl)benzamido)-N-hydroxyoctanamide]: the fold induction at 10 µM in the assay with lysine acetylation stood at 1.7. In addition, the Emax at 10 µM in assay [1] turned out to be 65%; in assay [2] it was 62%; in assay [3], 56%; in assay [5], 27%. Further, the “% of Inhibition on Total HDAC Enzyme at 30 μM” value in assay [4] was determined as 93%.
